# Columns and labels:
# [1] = test system: ERK1/2 phosphorylation in EAhy926 endothelial cells; assay: ERK1/2 phosphorylation in EA.hy.926 endothelial cells, Western blot of lysates (LI-COR Odyssey); assay type: cell-based, human; conditions: 5 min; 10 nM APC or thrombin, 10 μM TFLL peptide, 50 μM TR47-66 or scr-TR47-66
# Protocol: To assess whether PAR1 cleaved at Arg^46 would generate a PAR1 N-terminus that is capable of promoting PAR1 signaling, we studied the effects of synthetic peptides on ERK1/2 phosphorylation in EAhy926 endothelial cells. […] Relative phosphorylation of ERK1/2 was determined using the LI-COR Odyssey infrared imaging system which permits quantitative analysis over a wide dynamic range.
# In this figure (left), anti-pT202Y204-ERK1/2 antibodies appear green while total anti-ERK1/2 antibodies appear red, and orange intensity reflects overlaps. […] The signal for phosphorylated ERK1/2 (green channel) was normalized to the signal for total ERK1/2 antigen (red channel) to quantify relative phosphorylation as a ratio, and the results are seen in the bar graph. […] The control scr-TR47-66 peptide (scrambled residues 47-66) caused no increase.
# Methods: EA.hy.926 cells (ATCC; CRL-2922) were grown in 6-well plates in DMEM (Invitrogen #12430) supplemented with glutamax (Invitrogen #35050) and 10% FBS (Hyclone #35-011-CV) in a 37° C. cell incubator with a humidified atmosphere and 5% CO2 in air until confluency. […] Subsequently cells were resuspended in lysis buffer with protein and phosphatase inhibitors, cell lysates were applied to SDS-PAGE gel electrophoresis on 10% Bis-Tris gels with MOPS running buffer (Invitrogen) and transferred to PVDF membrane (Millipore) for Western blot analysis. Blots were blocked in Odyssey blocking buffer (Licor) and incubated with a combination of mouse anti-ERK1/2 (1/2000; Cell Signaling #3A7) and rabbit anti-pT202/204 ERK1/2 (1/1000; cell signaling #D13.14.4E) antibodies in Odyssey blocking buffer (Licor). After washing, blots were incubated with RDye680-labeled donkey anti-mouse (1/10,000; Licor) and IRDye800CW-labeled donkey anti-rabbit (1/10,000), washed again with PBS/0.1% Tween and IR fluorescence of bound antibodies was determined using the Odyssey (Licor).
# [2] = test system: Akt phosphorylation at Ser473 in EA.hy.926 human endothelial cells; assay: Akt Ser473 phosphorylation in EA.hy.926 endothelial cells (in-cell Western); assay type: cell-based; conditions: for Ser473-Akt phosphorylation (activation of Akt): Example 7, under the employed experimental conditions; for pSer473-Akt (Akt phosphorylation): 0, 5 or 30 min, TFLL 50 μM, NPND 250 μM, scr-NPND 250 μM
# Source text: (§1) Activated Protein C (APC) cleaves a synthetic PAR1 tail peptide at Arg^41 and Arg^46; furthermore, APC cleaves SEAP-PAR1 mutants with the mutations R41A or R41Q but not SEAP-PAR1 with both R41Q/R46Q mutations. […] It was thus hypothesized that a new PAR1 N-terminus beginning at residue Asn-47 promotes PAR1 signaling and APC cytoprotective activities. Since phosphorylation of signaling network components is useful for monitoring activation of signaling pathways, the effects of synthetic PAR1 peptides on Akt and ERK1/2 phosphorylation in EA.hy.926 human endothelial cells were studied. Cells were treated for 0, 5 or 30 min with peptides prior to cell fixation, permeabilization of cells and subsequent immunoblotting analysis (“in-cell Western blotting”). Relative phosphorylation of Akt at Ser^473 (pSer^473-Akt) or of ERK1/2 at Thr202/204 (pERK1/2) in endothelial cells was quantified using the LI-COR Odyssey infrared (IR) fluorescence imaging system which permits “in cell” Western blots. The Odyssey permits simultaneous quantification of different antibodies that yield either red or green signals.
# (§2) Methods: EA.hy.926 cells (ATCC: CRL-2922) were grown in black clear bottom 96 well plates (Nunc) in DMEM (Invitrogen #12430) supplemented with glutamax (Invitrogen #35050) and 10% FBS (Hyclone #35-011-CV) in a 37° C. cell incubator with a humidified atmosphere and 5% CO2 in air until confluency. Cells were treated for 0, 5 or 30 min with PAR1 peptides TFLL (50 μM), NPND (250 μM) or scr-NPND (250 μM) or with vehicle in serum free media. Subsequently cells were fixed with methanol free 4% para-formaldehyde (Pierce), washed with phosphate buffered saline (PBS; Invitrogen) containing 1% triton X-100 and blocked with Odyssey blocking buffer (Licor). Cells were incubated with rabbit anti-pT202/Y204 ERK1/2 (1/1000; Cell signaling D13.14.4E) or rabbit anti-pSer^473 (1/100; cell signaling D9E) with Odyssey blocking buffer. After washing with PBS/0.1% Tween (1/800), IRDye 800CW-labelled secondary goat anti-rabbit antibodies (Licor) were added to the cells in Odyssey blocking buffer and 1/10,000 Draq5 (Biostatus) for cell normalization. After final washing with PBS/0.1% Tween IR, the fluorescence of bound antibodies was determined using the Odyssey (Licor). Background fluorescence was determined by omitting the primary antibody and subtracting values for controls from all other observed values.
# [3] = test system: ERK1/2 phosphorylation at Thr202/204 in EA.hy.926 human endothelial cells; assay: ERK1/2 phosphorylation in EA.hy.926 endothelial cells (in-cell Western); assay type: cell-based; conditions: for activation of ERK1/2: Example 7; for ERK1/2 phosphorylation (pERK1/2): 0, 5 or 30 min, TFLL 50 μM, NPND 250 μM, scr-NPND 250 μM
# Source text: as §1, §2
# [4] = test system: glycogen synthase kinase 3β (GSK3β) phosphorylation at Ser9; assay: GSK3β Ser9 phosphorylation in endothelial cells; assay type: cell-based, human; conditions: for Ser9-GSK3β phosphorylation: Example 6
# Protocol: To further confirm activation of Akt by the TR47-66 peptide, Akt-mediated inactivation of glycogen synthase kinase 3β (GSK3β) via phosphorylation at Ser9 was determined. GSK3β is a well-known downstream substrate for Akt.
Substance,increase in ERK1/2 phosphorylation (phospho/total ERK1/2 ratio) [1],Ser473-Akt phosphorylation (activation of Akt) [2],activation of ERK1/2 [3],phosphorylation of GSK3β at Ser9 ([4]; Example 7),pSer473-Akt (Akt phosphorylation) [2],ERK1/2 phosphorylation (pERK1/2) [3],Ser9-GSK3β phosphorylation [4],pSer473-Akt (Akt phosphorylation) ([2]; listed as NPND),Akt phosphorylation at Ser473 in the presence of the PAR1 inhibitor SCH79797 ([2]; with SCH79797)
"APC: Activated Protein C, serine protease with anticoagulant and cytoprotective cell signaling activities",1.5 fold,robust activation of Akt,transient but modest activation,sustained phosphorylation,–,–,–,–,–
"GDENENEKPNWYELKEPDSF (scrambled sequence) [scr-TR47-66, control scrambled TR47-66 peptide containing scrambled residues 47-66, reference compound]",no increase,–,–,–,essentially no effect,essentially no effect,no phosphorylation,–,–
NPNDKYEPFWEDEEKNESGL (listed as Homo sapiens) [TR47-66],–,induced activation of Akt,failed to induce any noticeable activation,–,increased Akt phosphorylation at Ser^47,essentially no effect,induced significant Ser9-GSK3β phosphorylation starting at 30 min,time-dependent sustained increase,failed to induce Akt phosphorylation
thrombin,3 fold,neither thrombin nor TRAP induced,–,–,–,–,–,–,–

# — US10273279B2, “Protease activated receptor-1 (PAR1) derived cytoprotective polypeptides and related methods” (THE SCRIPPS RESEARCH INSTITUTE, priority 2011, dated 2019)
